Reference: paper PMC11311842, “Radiosynthesis and Preclinical Evaluation of ^18F-Labeled Estradiol Derivatives with Different Lipophilicity for PET Imaging of Breast Cancer” (Cancers, 2024)
pIC50: −log10 of the molar value. Read-outs that look alike come from different tables or passages of the source. Each block holds one molecule with its values, some of them ahead of it.

Columns and labels:
[1] = test system: ER+ MCF-7 cells; test: Cellular uptake assay in ER+ cells; assay type: cell-based, human
Protocol: One day prior to the experiment, MCF-7 and MDA-MB-231 cells were seeded in 24-well plates (350,000 cells/well). The cells were washed once with cell medium. The cells were incubated with the respective radiotracer in cell medium (510 µL) for 10, 20, 30, 60, 90, 120 min at 37 °C in the absence and presence of estradiol (E2, final concentration of 72 µM). After incubation, the plates were set on ice and washed with ice-cold PBS twice, following cell lysis and detachment with NaOH (0.1 M, 750 µL, 37 °C). The cells were transferred to counting tubes, and the radioactivity was measured using a γ-counter (Wallac Wizard, PerkinElmer, Waltham, MA, USA). The protein concentration of each well was determined in duplicate using Bradford reagent (Bio-Rad Laboratories GmbH, Feldkirchen, Germany). The cellular uptake assay was performed in 2–4 independent experiments, each performed in quadruplicate for each time point.

[2] = Stability in human serum and plasma in vitro (radio-HPLC); assay type: in vitro ADME; settings: 37 °C; for Stability in human serum and plasma (in words): over 120 min, radio-HPLC; for Stability in Human Serum or Plasma: over 2 h, same for serum and plasma
Protocol: An aliquot of the formulated tracer solution (40 µL containing approx. 10 MBq in 0.9% NaCl) was incubated with 200 µL of human plasma (Hölzel Diagnostika Handels GmbH, from CosmoBio USA, Carlsbad, CA, USA) or human serum (Biochrom GmbH, Merck KGaA, Darmstadt, Germany), respectively, at 37 °C. After various time points (5–120 min), aliquots (30 µL) were taken and quenched in methanol or 10% TFA (30 µL). The samples were centrifuged for 3 min, and subsequently the supernatants were analyzed by radio-HPLC (Chromolith RP-18e, 100 × 4.6 mm, 10–100% acetonitrile (with 0.1% TFA) in water (with 0.1% TFA) over 5 min, 4 mL/min).

[3] = Determination of logD7.4 (n-octanol/PBS); assay type: physicochemical; settings: n-octanol/PBS pH 7.4; mean ± SD, three independent experiments
Protocol: For the determination of the octanol–water coefficient, an aliquot of the radiotracer was added to PBS (500 µL, pH 7.4) and n-octanol (500 µL) in an Eppendorf tube. The mixture was vortexed and subsequently centrifuged, each for 1 min. Three samples (each 100 µL) were taken from both the PBS and the n-octanol layer and measured using a γ-counter (Wallac Wizard, PerkinElmer, Waltham, MA, USA). The logD7.4 was expressed as log(cpmoctanol/cpmPBS) and reported as mean ± SD. The determination of logD7.4 was performed in three independent experiments, each performed in triplicate.

[4] = test system: MCF-7 (ER+) breast cancer cells; test: Competitive cellular uptake with ^18F-TA-Glyco-EE as radioligand; assay type: cell-based; settings: Homo sapiens, MCF7, 1 h, read-out: IC50 for inhibition of cellular uptake of ^18F-TA-Glyco-EE
Protocol: Competitive uptake experiments were performed using ^18F-TA-Glyco-EE as a radioligand. One day prior to the experiment, MCF-7 cells were seeded in 96-well plates (50,000 cells/well). The cell medium was removed, and the respective estradiol derivative, as a competitor of the radioligand, was added in concentrations from 0 to 500 µM in 90 µL cell culture medium each. After ^18F-TA Glyco-EE (10 µL, approx. 1 MBq/well) was added, the incubation proceeded for 60 min at 37 °C. The plate was set on ice and washed with ice-cold PBS, followed by cell lysis and detachment with NaOH (0.1 M, 200 µL, 37 °C). The cells were transferred into counting tubes, and the radioactivity was measured using a γ-counter (Wallac Wizard, PerkinElmer, Waltham, MA, USA). One single experiment was performed in triplicate.

[5] = Hydrolysis of the Si-^18F bond observed on formulation; assay type: physicochemical; settings: slightly acidic conditions (HBSS pH 6.4)
Protocol: Aiming at a more lipophilic derivatization of EE for comparison to the above-described hydrophilic derivatization, the well-known isotopic ^19F-^18F exchange reaction according to Schirrmacher et al. was applied to the radiosynthesis of ^18F-SiFA-EE, starting from ^19F-SiFA-EE. After cartridge purification and reformulation in HBSS (pH 6.4), ^18F-SiFA-EE was obtained in an AY of 44% (referred to [^18F]fluoride) after a total synthesis time of 27 min, with an Am of up to 28 GBq/µmol. It should be noted here that the obtained Am of ^18F-SiFA-EE was strongly dependent on the starting activity.

[6] = test system: MCF-7 and T47D tumors; settings: cited from earlier work
[7] = cited from earlier work
[8] = Plasma protein binding (MicroSpin G-50 columns); assay type: in vitro ADME; settings: human plasma, 10 min, 37 °C
Protocol: MicroSPin G-50 columns (Cytiva, Merck KGaA, Darmstadt, Germany) were preconditioned according to the manufacturer’s protocol and the experiment was performed as follows. In brief, an aliquot of the tracer (1 µL, approx. 250 kBq) was added to NaCl (0.9%, 200 µL, negative control) or human plasma (200 µL) and incubated for 10 min at 37 °C. A sample from the plasma or negative control (40 µL) was carefully added to the resin, and the column was placed in an Eppendorf tube. After centrifugation (2 min, 2000× g), the eluate and the resin were collected separately. Both were measured for radioactivity using a γ-counter (Wallac Wizard, PerkinElmer, Waltham, MA, USA), and the radioactivity eluted from the resin was calculated as a percentage of the total amount of radioactivity. The determination of plasma protein binding was performed twice in duplicate.

[9] = test system: MCF-7 tumor-bearing nude mice; design: method as in PMID 29466767; settings: 60 min p.i., cited from earlier work

- Stability in Human Serum or Plasma [2]: >99% over 2 h ^2
- logD7.4 [3]: 1.7 ± 0.1
SMILES: CC12CCC3c4ccc(O)cc4CCC3C1CCC2(O)c1cn(C2OC(C[18F])C(O)C(O)C2O)nn1 (stereo not shown) [^18F-Glyco-EE]
- Total cellular uptake in MCF-7 cells ([1]; after 90 min, 37 °C, absence of E2): 7 %/mg
- Stability in human serum and plasma (in words) [2]: stable in both plasma and serum over 120 min

SMILES: C[C@]12CC[C@@H]3c4ccc(O)cc4CC[C@H]3[C@@H]1CC[C@@]2(O)c1cn(CCOCCOCCOCCF)nn1 [PEG-EE]
- pIC50 [4]: 2.89

SMILES: CC12CCC3c4ccc(O)cc4CCC3C1CCC2(O)c1cn(Cc2ccc([Si]([18F])(C(C)(C)C)C(C)(C)C)cc2)nn1 (stereo not shown) [^18F-SiFA-EE]
- Hydrolytic stability of the Si-^18F bond [5]: highly amenable to hydrolysis of the Si-^18F bond

SMILES: CC(=O)OC1C(CF)OC(n2cc(C3(O)CCC4C5CCc6cc(O)ccc6C5CCC43C)nn2)C(OC(C)=O)C1OC(C)=O (stereo not shown) [TA-Glyco-EE]
- pIC50 [4]: 3.71

SMILES: CC12CCC3c4ccc(O)cc4CCC3C1CC([18F])C2O (stereo not drawn) [FES, 16α-[^18F]fluoroestradiol]
- Uptake in MCF-7 and T47D tumors [6]: < 0.4 %ID/g
- logD7.4 [7]: 2.5

SMILES: C#C[C@]1(O)CC[C@H]2[C@@H]3CCc4cc(O)ccc4[C@H]3CC[C@@]21C [EE, 17α-ethinylestradiol]
- calculated logKow [7]: 3.7

- pIC50 ([4]; MCF-7 cells, 60 min, 37 °C, single experiment in triplicate): 4.25
SMILES: C[C@]12CC[C@@H]3c4ccc(O)cc4CC[C@H]3[C@@H]1CC[C@@H]2O [E2, 17β-estradiol, reference compound]

- Plasma Protein Binding [8]: 71 ± 4%
- Stability in Human Serum or Plasma [2]: >99% over 2 h ^2
- logD7.4 [3]: 2.2 ± 0.1
SMILES: CC12CCC3c4ccc(O)cc4CCC3C1CCC2(O)c1cn(CCOCCOCCOCC[18F])nn1 (stereo not shown) [^18F-PEG-EE]
- Cellular uptake relative to ^18F-Glyco-EE ([1]; ER+ MCF-7 cells): four times higher
- Cellular uptake in MCF-7 cells ([1]; after 60 min, 37 °C, absence of E2): 27 %/mg
- Stability in human serum and plasma (in words) [2]: stable in both plasma and serum over 120 min

SMILES: CC12CCC3c4ccc(O)cc4CCC3C1CCC2(O)c1cn(CCOCCOCC[18F])nn1 (stereo not shown) [^18F-FETE]
- Tumor uptake ([9]; MCF-7 tumor-bearing nude mice): 4 %ID/g
- Tumor uptake after fulvestrant pretreatment ([9]; MCF-7 xenografts): 1.5 %ID/g
